pKi: −log10 of the molar value.

Data on 22 compounds can be found in US20180327402A1, “TRIAZOLOPYRIDINE COMPOUNDS AND METHODS OF USE THEREOF” (Genentech, Inc., priority 2015, published 2018).

In assay [1] the target is T1, isolated recombinant JAK1 kinase domain (Homo sapiens, UniProt P23458).
T1 construct: isolated recombinant JAK1 and JAK2 kinase domain
Put plainly: JAK enzyme assay (Caliper LabChip), JAK1. It counts as biochemical. The following applies: 1.5 nM JAK1, ATP 25 μM, 22° C., 30 minutes; Morrison tight binding model. The method, then: (§1) The activity of the isolated recombinant JAK1 and JAK2 kinase domain was measured by monitoring phosphorylation of a peptide derived from JAK3 (Val-Ala-Leu-Val-Asp-Gly-Tyr-Phe-Arg-Leu-Thr-Thr, fluorescently labeled on the N-terminus with 5-carboxyfluorescein) using the Caliper LabChip® technology (Caliper Life Sciences, Hopkinton, Mass.). To determine inhibition constants (Ki), compounds were diluted serially in DMSO and added to 50 μL kinase reactions containing purified enzyme (1.5 nM JAK1, or 0.2 nM JAK2), 100 mM HEPES buffer (pH 7.2), 0.015% Brij-35, 1.5 μM peptide substrate, ATP (25 μM), 10 mM MgCl2, 4 mM DTT at a final DMSO concentration of 2%. Reactions were incubated at 22° C. in 384-well polypropylene microtiter plates for 30 minutes and then stopped by addition of 25 μL of an EDTA containing solution (100 mM HEPES buffer (pH 7.2), 0.015% Brij-35, 150 mM EDTA), resulting in a final EDTA concentration of 50 mM. After termination of the kinase reaction, the proportion of phosphorylated product was determined as a fraction of total peptide substrate using the Caliper LabChip® 3000 according to the manufacturer's specifications. Ki values were then determined using the Morrison tight binding model (Morrison, J. F., Biochim. Biophys. Acta. 185:269-296 (1969); William, J. W. and Morrison, J. F., Meth. Enzymol., 63:437-467 (1979)) modified for ATP-competitive inhibition [Ki ═Ki,app/(1+[ATP]/Km,app)].

For assay [2], the target named is T2, isolated recombinant JAK2 kinase domain (Homo sapiens, UniProt O60674).
T2 construct: isolated recombinant JAK1 and JAK2 kinase domain
T2 sequence (O60674 849-1124 limits assumed): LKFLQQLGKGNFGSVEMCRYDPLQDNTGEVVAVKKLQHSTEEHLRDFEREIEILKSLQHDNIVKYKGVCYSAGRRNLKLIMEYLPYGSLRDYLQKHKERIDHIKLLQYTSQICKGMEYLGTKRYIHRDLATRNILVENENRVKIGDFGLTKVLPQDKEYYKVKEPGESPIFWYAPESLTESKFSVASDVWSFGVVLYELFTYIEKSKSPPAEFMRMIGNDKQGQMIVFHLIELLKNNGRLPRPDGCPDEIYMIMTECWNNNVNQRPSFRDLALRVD
Put plainly: JAK enzyme assay (Caliper LabChip), JAK2. In kind it is biochemical. Conditions: 0.2 nM JAK2, ATP 25 μM, 22° C., 30 minutes; Morrison tight binding model. The method, then:
as §1

T1 sequence (P23458 875-1153 limits assumed): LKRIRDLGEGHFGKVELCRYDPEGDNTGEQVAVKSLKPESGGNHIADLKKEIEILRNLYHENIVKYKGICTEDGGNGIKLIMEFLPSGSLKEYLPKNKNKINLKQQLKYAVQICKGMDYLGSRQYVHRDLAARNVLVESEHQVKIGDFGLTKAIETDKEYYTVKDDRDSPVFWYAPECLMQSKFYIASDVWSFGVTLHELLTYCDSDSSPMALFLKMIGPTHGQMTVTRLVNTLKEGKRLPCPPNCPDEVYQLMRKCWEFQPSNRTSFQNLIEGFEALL

Turning to `N#CCCN1CCC(n2cc(Nc3nc4c(N5CCC(CO)(c6ccc(Cl)cc6)CC5)cccn4n3)cn2)CC1` [Compound 1-4, 3-[4-[4-[[8-[4-(4-chlorophenyl)-4-(hydroxymethyl)-1-piperidyl]-[1,2,4]triazolo[1,5-a]pyridin-2-yl]amino]pyrazol-1-yl]-1-piperidyl]propanenitrile], the pKi in assay [1] was 9.57; in assay [2], 9.96.
For `COCCOc1ccc(COc2ccc(-c3cccn4nc(Nc5cnn(C[C@H]6CCCN6)c5)nc34)cc2)cn1` [Compound 3-4, 8-[4-[[6-(2-methoxyethoxy)-3-pyridyl]methoxy]phenyl]-N-[1-[[(2R)-pyrrolidin-2-yl]methyl]pyrazol-4-yl]-[1,2,4]triazolo[1,5-a]pyridin-2-amine], in that order: 8.72 and 9.32.
Taken in the same sequence, the figures for `COC(=O)CNCC1(c2ccc(Cl)cc2)CCN(c2cccn3nc(Nc4cnn(C)c4)nc23)CC1` [F, formic acid; methyl 2-[[4-(4-chlorophenyl)-1-[2-[(1-methylpyrazol-4-yl)amino]-[1,2,4]triazolo[1,5-a]pyridin-8-yl]-4-piperidyl]methylamino]] were 8.85 and 9.28.
Regarding `OCCCn1cc(Nc2nc3c(N4CCC(CO)(c5ccc(Cl)cc5)CC4)cccn3n2)cn1` [Compound 1-7, 3-[4-[[8-[4-(4-chlorophenyl)-4-(hydroxymethyl)-1-piperidyl]-[1,2,4]triazolo[1,5-a]pyridin-2-yl]amino]pyrazol-1-yl]propan-1-ol], the pKi in assay [1] is 9.74; in assay [2], 9.96.
`CN1CCC(n2cc(Nc3nc4c(N5CCC(CO)(c6ccc(Cl)cc6)CC5)cccn4n3)cn2)CC1` [Compound 1-12, [4-(4-chlorophenyl)-1-[2-[[1-(1-methyl-4-piperidyl)pyrazol-4-yl]amino]-[1,2,4]triazolo[1,5-a]pyridin-8-yl]-4-piperidyl]methanol; formic acid]: the pKi in assay [1] was 9.57; in assay [2], 9.72.
For `CSc1ccc(C2(CC#N)CCN(c3cccn4nc(Nc5cnn(CCN6CCN(C(C)=O)CC6)c5)nc34)CC2)cc1` [L, 2-[1-[2-[[1-[2-(4-acetylpiperazin-1-yl)ethyl]pyrazol-4-yl]amino]-[1,2,4]triazolo[1,5-a]pyridin-8-yl]-4-(4-methylsulfanylphenyl)-4-piperidyl]acetonitrile], the pKi was 8.59 in assay [1] and 9.19 in assay [2].
For `CSc1ccc(C2(CC#N)CCN(c3cccn4nc(Nc5cnn(CCN(C)C)c5)nc34)CC2)cc1` [N, 2-[1-[2-[[1-[2-(dimethylamino)ethyl]pyrazol-4-yl]amino]-[1,2,4]triazolo[1,5-a]pyridin-8-yl]-4-(4-methylsulfanylphenyl)-4-piperidyl]acetonitrile], in that order: 8.29 and 8.92.
For `CC(C)CCn1cc(Nc2nc3c(N4CCC(CO)(c5ccc(Cl)cc5)CC4)cccn3n2)cn1` [Compound 1-13, [4-(4-chlorophenyl)-1-[2-[(1-isopentylpyrazol-4-yl)amino]-[1,2,4]triazolo[1,5-a]pyridin-8-yl]-4-piperidyl]methanol; formic acid], in that order: 9.12 and 9.36.
Taken in the same sequence, the figures for `CN(C)CC(O)C1(c2ccc(Cl)cc2)CCN(c2cccn3nc(Nc4cnn(C)c4)nc23)CC1` (racemic) [C, 1-[4-(4-chlorophenyl)-1-[2-[(1-methylpyrazol-4-yl)amino]-[1,2,4]triazolo[1,5-a]pyridin-8-yl]-4-piperidyl]-2-(dimethylamino)ethanol] were 8.74 and 8.54.
As for `OCC1(c2ccc(Cl)cc2)CCN(c2cccn3nc(Nc4cnn(CC(F)F)c4)nc23)CC1` [Compound 1-14, [4-(4-chlorophenyl)-1-[2-[[1-(2,2-difluoroethyl)pyrazol-4-yl]amino]-[1,2,4]triazolo[1,5-a]pyridin-8-yl]-4-piperidyl]methanol], the pKi was 9.80 in assay [1] and 9.89 in assay [2].
Taken in the same sequence, the figures for `Cn1cc(Nc2nc3c(N4CCC(CN)(c5ccc(Cl)cc5)CC4)cccn3n2)cn1` [D, 8-[4-(aminomethyl)-4-(4-chlorophenyl)-1-piperidyl]-N-(1-methylpyrazol-4-yl)-[1,2,4]triazolo[1,5-a]pyridin-2-amine] were 9.26 and 9.03.
Taken in the same sequence, the figures for `CN1CCN(CCCn2cc(Nc3nc4c(N5CCC(CO)(c6ccc(Cl)cc6)CC5)cccn4n3)cn2)CC1` [Compound 1-9, [4-(4-chlorophenyl)-1-[2-[[1-[3-(4-methylpiperazin-1-yl)propyl]pyrazol-4-yl]amino]-[1,2,4]triazolo[1,5-a]pyridin-8-yl]-4-piperidyl]methanol; formic acid] were 9.26 and 9.59.
For `OCCn1cc(Nc2nc3c(N4CCC(CO)(c5ccc(Cl)cc5)CC4)cccn3n2)cn1` [Compound 1-15, 2-[4-[[8-[4-(4-chlorophenyl)-4-(hydroxymethyl)-1-piperidyl]-[1,2,4]triazolo[1,5-a]pyridin-2-yl]amino]pyrazol-1-yl]ethanol], in that order: 9.96 and 10.05.
With `O=C(CCC(F)(F)F)N1CC=C(c2cccn3nc(Nc4cnn(CC(F)F)c4)nc23)CC1` [Compound 2-1, 1-[4-[2-[[1-(2,2-difluoroethyl)pyrazol-4-yl]amino]-[1,2,4]triazolo[1,5-a]pyridin-8-yl]-3,6-dihydro-2H-pyridin-1-yl]-4,4,4-trifluoro-butan-1-one], the pKi in assay [1] was 9.13; in assay [2], 9.06.
For `O=C(CCC(F)(F)F)N1CC=C(c2cccn3nc(Nc4cnn(CCO)c4)nc23)CC1` [Compound 2-2, 4,4,4-trifluoro-1-[4-[2-[[1-(2-hydroxyethyl)pyrazol-4-yl]amino]-[1,2,4]triazolo[1,5-a]pyridin-8-yl]-3,6-dihydro-2H-pyridin-1-yl]butan-1-one], in that order: 9.06 and 9.15.
For `COCCOc1ccc(COc2ccc(-c3cccn4nc(Nc5cnn(C)c5)nc34)cc2)cn1` [Compound 3-1, 8-[4-[[6-(2-methoxyethoxy)-3-pyridyl]methoxy]phenyl]-N-(1-methylpyrazol-4-yl)-[1,2,4]triazolo[1,5-a]pyridin-2-amine], in that order: 9.20 and 9.49.
Consider `CSc1ccc(C2(CO)CCN(c3cccn4nc(Nc5cnn(CCN)c5)nc34)CC2)cc1` [R, [1-[2-[[1-(2-aminoethyl)pyrazol-4-yl]amino]-[1,2,4]triazolo[1,5-a]pyridin-8-yl]-4-(4-methylsulfanylphenyl)-4-piperidyl]methanol], for which the figures for the pKi in assay [1] and in assay [2] were 8.54 and 8.85, respectively.
Taken in the same sequence, the figures for `COC(=O)CN1CCC2(CC1)CN(C(=O)N1CC=C(c3cccn4nc(Nc5cnn(C)c5)nc34)CC1)C2` [E, methyl 2-[2-[4-[2-[(1-methylpyrazol-4-yl)amino]-[1,2,4]triazolo[1,5-a]pyridin-8-yl]-3,6-dihydro-2H-pyridine-1-carbonyl]-2,7-diazaspiro[3.5]nonan-7-yl]acetate] were 7.42 and 7.70.
Consider `CCc1cnn(C2(CC#N)CN(c3cccn4nc(Nc5cnn(Cc6cn(C7CCN(C8COC8)CC7)nn6)c5)nc34)C2)c1` [S, 2-[3-(4-ethylpyrazol-1-yl)-1-[1-[[1-[[1-[1-(oxetan-3-yl)-4-piperidyl]triazol-4-yl]methyl]pyrazol-4-yl]amino]-[1,2,4]triazolo[1,5-a]pyridin-8-yl]azetidin-3-yl]acetonitrile], for which the pKi in assay [1] is 9.05; in assay [2] it was 9.24.
In the case of `COCCOc1ccc(COc2ccc(-c3cccn4nc(Nc5cnn(C6CCNCC6)c5)nc34)cc2)cn1` [Compound 3-3, 8-[4-[[6-(2-methoxyethoxy)-3-pyridyl]methoxy]phenyl]-N-[1-(4-piperidyl)pyrazol-4-yl]-[1,2,4]triazolo[1,5-a]pyridin-2-amine], the pKi in assay [1] was 9.09; in assay [2], 9.70.
For `CSc1ccc(C2(CC#N)CCN(c3cccn4nc(Nc5cnn(CCN6CCC(N7CCOCC7)CC6)c5)nc34)CC2)cc1` [K, 2-[4-(4-methylsulfanylphenyl)-1-[2-[[1-[2-(4-morpholino-1-piperidyl)ethyl]pyrazol-4-yl]amino]-[1,2,4]triazolo[1,5-a]pyridin-8-yl]-4-piperidyl]acetonitrile], in that order: 8.57 and 8.96.
For `CSc1ccc(C2(CC#N)CCN(c3cccn4nc(Nc5cnn(CCN6CCN(C(=O)N(C)C)CC6)c5)nc34)CC2)cc1` [Q, 4-[2-[4-[[8-[4-(cyanomethyl)-4-(4-methylsulfanylphenyl)-1-piperidyl]-[1,2,4]triazolo[1,5-a]pyridin-2-yl]amino]pyrazol-1-yl]ethyl]-N,N-dimethyl-piperazine-1-carboxamide], in that order: 8.54 and 9.17.
